Source: patent publication US6737383B1, “Herbicidal oxadiazolidines” (priority 1999, dated 2004)

What was measured:
soybean = assay: Test B pre/postemergence soybean; format: in vivo, Glycine max
In short: (§1)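 Test chemicals in a non-phytotoxic solvent mixture with surfactant were sprayed preemergence onto planted seeds and postemergence onto plants 2 to 18 cm tall (1- to 4-leaf stage). After twelve to sixteen days in a greenhouse, injury was visually rated against untreated controls from 0 (no effect) to 10 (complete control).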

purple nutsedge = assay: Test B pre/postemergence purple nutsedge; format: in vivo, Cyperus rotundus
In short: as §1

sugar beet = assay: Test B pre/postemergence sugar beet; format: in vivo, Beta vulgaris
In short: as §1

morningglory = assay: Test B pre/postemergence morningglory; format: in vivo, Ipomoea hederacea; conditions: for Plant response rating, Morningglory: scale of 0 to 10 where 0 is no effect and 10 is complete control
In short: as §1

pigweed = assay: Test B pre/postemergence pigweed; format: in vivo, Amaranthus retroflexus
In short: as §1

giant foxtail = assay: Test B pre/postemergence giant foxtail; format: in vivo, Setaria faberii
In short: as §1

bedstraw = assay: Test B pre/postemergence bedstraw; format: in vivo, Galium aparine; conditions: Postemergence
In short: as §1

smallflower flatsedge = assay: Test B flood test smallflower flatsedge; format: in vivo, Cyperus difformis
In short: (§2)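 Plants were grown to the 2-leaf stage before treatment with test chemical, then held in a greenhouse for twelve to sixteen days. Injury was visually rated against untreated controls on a 0–10 scale, where 0 is no effect and 10 is complete control.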

wheat = assay: Test B pre/postemergence wheat; format: in vivo, Triticum aestivum
In short: as §1

rice = assay: Test B flood test rice; format: in vivo, Oryza sativa
In short: as §2

duck salad = assay: Test B flood test duck salad; format: in vivo, Heteranthera limosa
In short: as §2

rape = assay: Test B pre/postemergence rape; format: in vivo, Brassica napus
In short: as §1

wild oat = assay: Test B pre/postemergence wild oat; format: in vivo, Avena fatua
In short: as §1

velvetleaf = assay: Test B pre/postemergence velvetleaf; format: in vivo, Abutilon theophrasti
In short: as §1

bamyardgrass = assay: Test B flood test barnyardgrass; format: in vivo, Echinochloa crus-galli
In short: as §2

blackgrass = assay: Test B pre/postemergence blackgrass; format: in vivo, Alopecurus myosuroides
In short: as §1

[1] = Postemergence, Rate 250 g/ha, scale 0 to 10
[2] = Postemergence, Rate 500 g/ha, scale of 0 to 10 where 0 is no effect and 10 is complete control
[3] = Preemergence, Rate 62 g/ha, scale of 0 to 10 where 0 is no effect and 10 is complete control
[4] = Preemergence, Rate 125 g/ha, scale of 0 to 10 where 0 is no effect and 10 is complete control
[5] = Preemergence, Rate 250 g/ha, scale 0 to 10, 0 is no effect, 10 is complete control
[6] = Preemergence, Rate 500 g/ha, scale 0 to 10, 0 is no effect, 10 is complete control
[7] = Rate 62 g/ha, Postemergence, scale 0 to 10 (0 no effect, 10 complete control)
[8] = Rate 125 g/ha, Postemergence, scale 0 to 10, 0 is no effect, 10 is complete control
[9] = Postemergence block (flood test species), Rate 250 g/ha, scale 0 to 10
[10] = Postemergence section (flood test species), Rate 500 g/ha, scale of 0 to 10 where 0 is no effect and 10 is complete control
[11] = Rate 62 g/ha, Postemergence (flood test), scale 0 to 10, 0 no effect, 10 complete control
[12] = Rate 125 g/ha, Postemergence section (flood test species), scale 0 to 10, 0 is no effect, 10 is complete control

CC(C)N(C(=O)n1oc(=O)n(CC(=O)N(C)C)c1=O)c1ccc(F)cc1F [Compound 440]
6: Soybean plant response rating (soybean; [1]) | Soybean plant response rating (soybean; [8]) | Plant response rating, Giant foxtail (giant foxtail; [3]) | Plant response rating, Giant foxtail (giant foxtail; [4]) | Plant response rating, Blackgrass (blackgrass; [4])
1: Redroot pigweed plant response rating (pigweed; [8])
10: Redroot pigweed plant response rating (pigweed; [6]) | Giant foxtail plant response rating (giant foxtail; [5]) | Giant foxtail plant response rating (giant foxtail; [6]) | Blackgrass plant response rating (blackgrass; [5]) | Blackgrass plant response rating (blackgrass; [6])
5: Soybean plant response rating (soybean; [7]) | Wheat plant response rating (wheat; [5]) | Wild oats plant response rating (wild oat; [2]) | Plant response rating, Wild oats (wild oat; [4])
7: Soybean plant response rating (soybean; [2]) | Sugarbeets plant response rating (sugar beet; [6]) | Redroot pigweed plant response rating (pigweed; [5]) | Wheat plant response rating (wheat; [6]) | Velvetleaf plant response rating (velvetleaf; [6])
2: Sugarbeets plant response rating (sugar beet; [2]) | Morningglory plant response rating (morningglory; [7]) | Bedstraw plant response rating (bedstraw; Rate 250 g/ha, scale 0 to 10) | Velvetleaf plant response rating (velvetleaf; [2]) | Plant response rating, Blackgrass (blackgrass; [3])
0: Plant response rating, Soybean (soybean; [3]) | Plant response rating, Soybean (soybean; [4]) | Soybean plant response rating (soybean; [5]) | Soybean plant response rating (soybean; [6]) | Nutsedge plant response rating (purple nutsedge; [1]) | Nutsedge plant response rating (purple nutsedge; [2]) | Plant response rating, Nutsedge (purple nutsedge; [3]) | Plant response rating, Nutsedge (purple nutsedge; [4]) | Nutsedge plant response rating (purple nutsedge; [5]) | Nutsedge plant response rating (purple nutsedge; [7]) | Nutsedge plant response rating (purple nutsedge; [8]) | Sugarbeets plant response rating (sugar beet; [1]) | Plant response rating, Sugarbeets (sugar beet; [3]) | Plant response rating, Sugarbeets (sugar beet; [4]) | Sugarbeets plant response rating (sugar beet; [7]) | Sugarbeets plant response rating (sugar beet; [8]) | Plant response rating, Morningglory (morningglory; Preemergence, Rate 62 g/ha) | Plant response rating, Morningglory (morningglory; Preemergence, Rate 125 g/ha) | Morningglory plant response rating (morningglory; [5]) | Morningglory plant response rating (morningglory; [6]) | Plant response rating, Redroot pigweed (pigweed; [3]) | Redroot pigweed plant response rating (pigweed; [7]) | Giant foxtail plant response rating (giant foxtail; [7]) | Bedstraw plant response rating (bedstraw; Rate 125 g/ha, scale 0 to 10, 0 is no effect, 10 is complete control) | S. Flatsedge plant response rating (smallflower flatsedge; [9]) | S. Flatsedge plant response rating (smallflower flatsedge; [10]) | S. Flatsedge plant response rating (smallflower flatsedge; [11]) | S. Flatsedge plant response rating (smallflower flatsedge; [12]) | Wheat plant response rating (wheat; [1]) | Plant response rating, Wheat (wheat; [3]) | Plant response rating, Wheat (wheat; [4]) | Wheat plant response rating (wheat; [7]) | Wheat plant response rating (wheat; [8]) | Rice plant response rating (rice; [9]) | Rice plant response rating (rice; [10]) | Rice plant response rating (rice; [11]) | Rice plant response rating (rice; [12]) | Ducksalad plant response rating (duck salad; [9]) | Ducksalad plant response rating (duck salad; [10]) | Ducksalad plant response rating (duck salad; [11]) | Ducksalad plant response rating (duck salad; [12]) | Rape plant response rating (rape; [1]) | Rape plant response rating (rape; [2]) | Plant response rating, Rape (rape; [3]) | Plant response rating, Rape (rape; [4]) | Rape plant response rating (rape; [7]) | Rape plant response rating (rape; [8]) | Wild oats plant response rating (wild oat; [1]) | Plant response rating, Wild oats (wild oat; [3]) | Wild oats plant response rating (wild oat; [7]) | Wild oats plant response rating (wild oat; [8]) | Velvetleaf plant response rating (velvetleaf; [1]) | Plant response rating, Velvetleaf (velvetleaf; [3]) | Plant response rating, Velvetleaf (velvetleaf; [4]) | Velvetleaf plant response rating (velvetleaf; [5]) | Velvetleaf plant response rating (velvetleaf; [7]) | Velvetleaf plant response rating (velvetleaf; [8]) | Barnyardgrass plant response rating (bamyardgrass; [9]) | Barnyardgrass plant response rating (bamyardgrass; [10]) | Barnyardgrass plant response rating (bamyardgrass; [11]) | Barnyardgrass plant response rating (bamyardgrass; [12]) | Blackgrass plant response rating (blackgrass; [7]) | Blackgrass plant response rating (blackgrass; [8])
8: Morningglory plant response rating (morningglory; [1]) | Morningglory plant response rating (morningglory; [8]) | Blackgrass plant response rating (blackgrass; [2])
4: Sugarbeets plant response rating (sugar beet; [5]) | Redroot pigweed plant response rating (pigweed; [2]) | Plant response rating, Redroot pigweed (pigweed; [4]) | Giant foxtail plant response rating (giant foxtail; [8]) | Wheat plant response rating (wheat; [2]) | Blackgrass plant response rating (blackgrass; [1])
3: Redroot pigweed plant response rating (pigweed; [1]) | Rape plant response rating (rape; [5]) | Rape plant response rating (rape; [6])
9: Giant foxtail plant response rating (giant foxtail; [1]) | Giant foxtail plant response rating (giant foxtail; [2]) | Wild oats plant response rating (wild oat; [5]) | Wild oats plant response rating (wild oat; [6])
